From US20230083973A1, “SUBSTITUTED CYCLOPROPYL-2,2'-BIP[…], ANALOGUES THEREOF, AND METHODS USING SAME” (priority 2019, published 2023)
Read-outs that look alike come from different tables or passages of the source.

Tested on: HBsAg
Test: HBsAg assay: inhibition of HBsAg in HepG2.2.15 cells (chemiluminescence immunoassay of supernatant)
Assay type: cell-based, hepatitis B virus
Conditions: HBsAg in supernatant at day 6 after exposure to compound, 0.5% DMSO
Description: Inhibition of HBsAg was determined in HepG2.2.15 cells. Cells were maintained in culture medium containing 10% fetal calf serum, […], Glutamine, penicillin/streptomycin. Cells were seeded in 96-well collagen-coated plate at a density of 30,000 cells/well. Serially diluted compounds were added to cells next day at the final DMSO concentration of 0.5%. Cells were incubated with compounds for 2-3 days, after which medium was removed. Fresh medium containing compounds was added to cells for additional 3-4 days. At day 6 after exposure of compounds, supernatant was collected, the HBsAg immunoassay (microplate-based chemiluminescence immunoassay kits, CLIA, Autobio Diagnosics Co., Zhengzhou, China, Catalog # CL0310-2) was used to determine the level of HBsAg according to manufactory instruction. Dose-response curves were generated and the EC50 value (effective concentrations that achieved 50% inhibitory effect) were determined using XLfit software. In addition, cells were seeded at a density of 5,000 cells/well for determination of cell viability in the presence and absence of compounds by using CellTiter-Glo reagent (Promega).
Table 1 illustrates EC50 values obtained by the HBsAg assay for selected compounds.

[1] = Hepatitis B virus, HepG2.2.15, 144 h, read-out: sAg EC50, HepG2.2.15 cells
[2] = read-out: sAg EC50, HepG2.2.15 cells

| SMILES | EC50 [1] [nM] | EC50 [2] [nM] |
| --- | --- | --- |
| COc1cc(C2CC2c2cnc(-c3ncccn3)nc2)cnc1OC (single isomer, unassigned) [Example 183, trans-5-(2-(5,6-Dimethoxypyridin-3-yl)cyclopropyl)-2,2′-bipyrimidine] | 910 | – |
| COCCCn1ncc2c(F)cc([C@@H]3C[C@H]3c3cnc(-c4ncccn4)nc3)cc21 (relative stereo) [Example 275, trans-6-(2-([2,2′-Bipyrimidin]-5-yl)cyclopropyl)-4-fluoro-1-(3-methoxypropyl)-1H-indazole] | 75 | – |
| COc1cc(C2CC2c2cnc(-c3ncccn3)nc2)cc(OC)c1F (single isomer, unassigned) [Example 146, trans-5-(2-(4-Fluoro-3,5-dimethoxyphenyl)cyclopropyl)-2,2′-bipyrimidine] | – | 110 |
| Fc1ccc(C2CC2c2cnc(-c3ncccn3)nc2)cc1N1CCCCC1 (single isomer, unassigned) [Example 196, trans-5-(2-(4-Fluoro-3-(piperidin-1-yl)phenyl)cyclopropyl)-2,2′-bipyrimidine] | – | 210 |
| CN1CC[C@@H](Nc2cc(C3CC3c3cnc(-c4ncccn4)nc3)cc(F)c2F)C1 (single isomer, unassigned) [Example 231] | – | 750 |
| Fc1cc(C2CC2c2cnc(-c3ncccn3)nc2)cc(O[C@@H]2CCOC2)c1F (single isomer, unassigned) [Example 248] | – | 1000 |
| Fc1cc([C@@H]2C[C@H]2c2cnc(-c3ncccn3)nc2)cc2ccccc12 (relative stereo) [Example 169, trans-5-(2-(4-Fluoronaphthalen-2-yl)cyclopropyl)-2,2′-bipyrimidine] | 36 | – |
| CC(C)(C)S(=O)(=O)C1CN(c2cc([C@@H]3C[C@H]3c3cnc(-c4ncccn4)nc3)cc(F)c2F)C1 (relative stereo) [Example 211, trans-5-(2-(3-(3-(tert-Butylsulfonyl)azetidin-1-yl)-4,5-difluorophenyl)cyclopropyl)-2,2′-bipyrimidine] | 110 | – |
| c1cnc(-c2ncc([C@@H]3C[C@H]3c3ccc4ccccc4c3)cn2)nc1 (relative stereo) [Example 167, trans-5-(2-(Naphthalen-2-yl)cyclopropyl)-2,2′-bipyrimidine] | 180 | – |
| COc1cc(F)cc(C2CC2c2cnc(-c3ncccn3)nc2)c1 (single isomer, unassigned) [Example 112, trans-5-(2-(3-Fluoro-5-methoxyphenyl)cyclopropyl)-2,2′-bipyrimidine] | – | 500 |
| CN1CCN(c2cc(C3CC3c3cnc(-c4ncccn4)nc3)ccc2F)CC1 (single isomer, unassigned) [Example 188, trans-5-(2-(4-Fluoro-3-(4-methylpiperazin-1-yl)phenyl)cyclopropyl)-2,2′-bipyrimidine] | – | 4000 |
| COc1cc(F)ccc1[C@@H]1C[C@H]1c1cnc(-c2ncccn2)nc1 (relative stereo) [Example 7, trans-5-(2-(4-Fluoro-2-methoxyphenyl)cyclopropyl)-2,2′-bipyrimidine] | 370 | – |
| Fc1cc(C2CC2c2cnc(-c3ncccn3)nc2)cc(-n2ccnc2)c1F (single isomer, unassigned) [Example 181, trans-5-(2-(3,4-Difluoro-5-(1H-imidazol-1-yl)phenyl)cyclopropyl)-2,2′-bipyrimidine] | – | 390 |
| CC1(C)CCN(c2cc(C3CC3c3cnc(-c4ncccn4)nc3)cc(F)c2F)C1 (single isomer, unassigned) [Example 221, trans-5-(2-(3-(3,3-Dimethylpyrrolidin-1-yl)-4,5-difluorophenyl)cyclopropyl)-2,2′-bipyrimidine] | – | 320 |
| COc1cc(C2CC2c2cnc(-c3ncccn3)nc2)cnc1OC (single isomer, unassigned) [Example 184, trans-5-(2-(5,6-Dimethoxypyridin-3-yl)cyclopropyl)-2,2′-bipyrimidine] | – | 1100 |
| COc1cc(C2CC2c2ccc(-c3ncccn3)nn2)ccc1F (single isomer, unassigned) [Example 191, trans-3-(2-(4-Fluoro-3-methoxyphenyl)cyclopropyl)-6-(pyrimidin-2-yl)pyridazine] | – | 2000 |
| CO[C@H]1CCN(c2cc(C3CC3c3cnc(-c4ncccn4)nc3)cc(F)c2F)C1 (single isomer, unassigned) [Example 103] | – | 8 |
| Cc1nc2c(F)cc([C@@H]3C[C@H]3c3cnc(-c4ncccn4)nc3)cc2s1 (relative stereo) [Example 272, trans-6-(2-([2,2′-Bipyrimidin]-5-yl)cyclopropyl)-4-fluoro-2-methylbenzo[d]thiazole] | 73 | – |
| COc1ccc(C2CC2c2cnc(-c3ncccn3)nc2)cc1OC (single isomer, unassigned) [Example 32, trans-5-(2-(3,4-Dimethoxyphenyl)cyclopropyl)-2,2′-bipyrimidine] | – | 480 |
| CC1(C)CCN(c2cc(C3CC3c3cnc(-c4ncccn4)nc3)cc(F)c2F)C1 (single isomer, unassigned) [Example 220, trans-5-(2-(3-(3,3-Dimethylpyrrolidin-1-yl)-4,5-difluorophenyl)cyclopropyl)-2,2′-bipyrimidine] | – | 30 |
| CO[C@@H]1CCN(c2cc(C3CC3c3cnc(-c4ncccn4)nc3)ccc2F)C1 (single isomer, unassigned) [Example 95] | – | 170 |
| CO[C@H]1CN(c2cc(C3CC3c3cnc(-c4ncccn4)nc3)cc(F)c2F)C[C@H]1OC (relative stereo) [Example 235, trans-5-(2-(3-((3R,4S)-3,4-Dimethoxypyrrolidin-1-yl)-4,5-difluorophenyl)cyclopropyl)-2,2′-bipyrimidine] | 39 | – |
| COCCOc1cc(C2CC2c2cnc(-c3ncccn3)nc2)cc(F)c1F (single isomer, unassigned) [Example 134, trans-5-(2-(3,4-Difluoro-5-(2-methoxyethoxy)phenyl)cyclopropyl)-2,2′-bipyrimidine] | – | 300 |
| Fc1cc([C@@H]2C[C@H]2c2cnc(-c3ncccn3)nc2)cc(N2CC3(COC3)C2)c1F (relative stereo) [Example 209, trans-6-(5-(2-([2,2′-Bipyrimidin]-5-yl)cyclopropyl)-2,3-difluorophenyl)-2-oxa-6-azaspiro[3.3]heptane] | 120 | – |
| Cc1cn(-c2cc(C3CC3c3cnc(-c4ncccn4)nc3)cc(F)c2F)cn1 (single isomer, unassigned) [Example 261, trans-5-(2-(3,4-Difluoro-5-(4-methyl-1H-imidazol-1-yl)phenyl)cyclopropyl)-2,2′-bipyrimidine] | – | 670 |
| CCc1cc(F)c(OC)cc1C1CC1c1cnc(-c2ncccn2)nc1 (single isomer, unassigned) [Example 36, trans-5-(2-(2-Ethyl-4-fluoro-5-methoxyphenyl)cyclopropyl)-2,2′-bipyrimidine] | – | 720 |
| O[C@H]1CCN(c2cc(C3CC3c3cnc(-c4ncccn4)nc3)ccc2F)C1 (single isomer, unassigned) [Example 65] | – | 580 |
| CC(=O)Nc1cc(C2CC2c2cnc(-c3ncccn3)nc2)ccc1Cl (single isomer, unassigned) [Example 205, trans-N-(5-(2-([2,2′-Bipyrimidin]-5-yl)cyclopropyl)-2-chlorophenyl)acetamide] | 510 | – |
